A short description of one series: pKa determination. The series is classed as physicochemical.
The target of series [1] is T1, F508del-CFTR (Homo sapiens, UniProt P13569, DEL508-508). In words: Membrane potential optical (FLIPR) assay for F508del-CFTR modulators. The series is classed as cell-based. Set-up: expressed in transfected cells. An excerpt: The assay utilizes fluorescent voltage sensing dyes to measure changes in membrane potential using a fluorescent plate reader (e.g., FLIPR III, Molecular Devices, Inc.) as a readout for increase in functional F508del in NIH 3T3 cells. The driving force for the response is the creation of a chloride ion gradient in conjunction with channel activation and concurrent with compound treatment by a single liquid addition step after the cells have previously been loaded with a voltage sensing dye.
To identify modulators of F508del, a fluorescence based HTS assay format was developed. This HTS assay utilizes fluorescent voltage sensing dyes to measure changes in membrane potential on the FLIPR III as a measurement for increase in gating (conductance) of F508del NIH 3T3 cells. The driving force for the response is the creation of a chloride ion gradient in conjunction with channel activation and concurrent with compound treatment by a single liquid addition step after the cells have previously been loaded with a voltage sensing dye.
(in mM) NaCl 160, KCl 4.5, CaCl2) 2, MgCl2 1, HEPES 10, pH 7.4 with NaOH, Glucose 10.
Chloride salts in Bath Solution #1 (above) are substituted with gluconate salts.
NIH3T3 mouse fibroblasts stably expressing F508del are used for optical measurements of membrane potential. The cells are maintained at 37° C. in 5% CO2 and 90% humidity in Dulbecco's modified Eagle's medium supplemented with 2 mM glutamine, 10% fetal bovine serum, 1×NEAA, β-ME, 1× pen/strep, and 25 mM HEPES in 175 cm^2 culture flasks. For all optical assays, the cells were seeded at 12,000 cells/well in 384-well matrigel-coated plates and cultured for 18-24 hrs at 37° C. for the potentiator assay. For the correction assays, the cells are cultured at 37° C. with and without compounds for 18-24 hours.

Series [2] addresses T1, F508del-CFTR. Put plainly: Ussing chamber assay, chloride transport in HBE cells. The series is classed as cell-based. Set-up: CF-HBE were isolated from patients homozygous for F508del; endogenous in cells; host or cells: primary CF human bronchial epithelial cells (F508del/F508del-HBE). Here is the method: Using chamber experiments were performed on polarized airway epithelial cells expressing F508del to further characterize the F508del modulators identified in the optical assays. Non-CF and CF airway epithelia were isolated from bronchial tissue, cultured as previously described (Galietta, L. J. V., Lantero, S., Gazzolo, A., Sacco, O., Romano, L., Rossi, G. A., & Zegarra-Moran, O. (1998) In Vitro Cell. Dev. Biol. 34, 478-481), and plated onto Costar® Snapwell™ filters that were precoated with NIH3T3-conditioned media. After four days the apical media was removed and the cells were grown at an air liquid interface for >14 days prior to use. […] CF-HBE were isolated from patients homozygous for F508del or compound heterozygous for F508del with a different disease causing mutation on the other allele.
HBE grown on Costar® Snapwell™ cell culture inserts were mounted in an Using chamber (Physiologic Instruments, Inc., San Diego, Calif.), and the transepithelial resistance and short-circuit current in the presence of a basolateral to apical Cl^− gradient (ISC) were measured using a voltage-clamp system (Department of Bioengineering, University of Iowa, IA). Briefly, HBE were examined under voltage-clamp recording conditions (Vhold=0 mV) at 37° C. The basolateral solution contained (in mM) 145 NaCl, 0.83 K2HPO4, 3.3 KH2PO4, 1.2 MgCl2, 1.2 CaCl2, 10 Glucose, 10 HEPES (pH adjusted to 7.35 with NaOH) and the apical solution contained (in mM) 145 NaGluconate, 1.2 MgCl2, 1.2 CaCl2), 10 glucose, 10 HEPES (pH adjusted to 7.35 with NaOH).
Typical protocol utilized a basolateral to apical membrane Cl^− concentration gradient. To set up this gradient, normal ringers was used on the basolateral membrane, whereas apical NaCl was replaced by equimolar sodium gluconate (titrated to pH 7.4 with NaOH) to give a large Cl^− concentration gradient across the epithelium. Modulators were added either to the basolateral side […] to assay or to the apical side during the assay. Forskolin (10 μM) was added to the apical side during the assay to stimulate CFTR-mediated Cl^− transport.

The target of series [3] is T1, F508del-CFTR. In words: F508del-CFTR processing and trafficking in vitro (170 to 180 kDa band). The format is cell-based. Set-up: CF-HBE were isolated from patients homozygous for F508del; endogenous in cells; host or cells: primary CF human bronchial epithelial cells (F508del/F508del-HBE). The text has this:
Processing and trafficking of F508del-CFTR was directly monitored by the appearance of a 170 to 180 kDa band.

Entries after “also recorded” stand apart in the source; their conditions may differ. Like-named read-outs stand apart in the source and are kept apart here.

The values below come from patent US10654829B2, “Crystalline forms and compositions of CFTR modulators” (Vertex Pharmaceuticals Incorporated, priority 2017, dated 2020).

T1 sequence (P13569 with tags, fused parts or gaps DEL508-508): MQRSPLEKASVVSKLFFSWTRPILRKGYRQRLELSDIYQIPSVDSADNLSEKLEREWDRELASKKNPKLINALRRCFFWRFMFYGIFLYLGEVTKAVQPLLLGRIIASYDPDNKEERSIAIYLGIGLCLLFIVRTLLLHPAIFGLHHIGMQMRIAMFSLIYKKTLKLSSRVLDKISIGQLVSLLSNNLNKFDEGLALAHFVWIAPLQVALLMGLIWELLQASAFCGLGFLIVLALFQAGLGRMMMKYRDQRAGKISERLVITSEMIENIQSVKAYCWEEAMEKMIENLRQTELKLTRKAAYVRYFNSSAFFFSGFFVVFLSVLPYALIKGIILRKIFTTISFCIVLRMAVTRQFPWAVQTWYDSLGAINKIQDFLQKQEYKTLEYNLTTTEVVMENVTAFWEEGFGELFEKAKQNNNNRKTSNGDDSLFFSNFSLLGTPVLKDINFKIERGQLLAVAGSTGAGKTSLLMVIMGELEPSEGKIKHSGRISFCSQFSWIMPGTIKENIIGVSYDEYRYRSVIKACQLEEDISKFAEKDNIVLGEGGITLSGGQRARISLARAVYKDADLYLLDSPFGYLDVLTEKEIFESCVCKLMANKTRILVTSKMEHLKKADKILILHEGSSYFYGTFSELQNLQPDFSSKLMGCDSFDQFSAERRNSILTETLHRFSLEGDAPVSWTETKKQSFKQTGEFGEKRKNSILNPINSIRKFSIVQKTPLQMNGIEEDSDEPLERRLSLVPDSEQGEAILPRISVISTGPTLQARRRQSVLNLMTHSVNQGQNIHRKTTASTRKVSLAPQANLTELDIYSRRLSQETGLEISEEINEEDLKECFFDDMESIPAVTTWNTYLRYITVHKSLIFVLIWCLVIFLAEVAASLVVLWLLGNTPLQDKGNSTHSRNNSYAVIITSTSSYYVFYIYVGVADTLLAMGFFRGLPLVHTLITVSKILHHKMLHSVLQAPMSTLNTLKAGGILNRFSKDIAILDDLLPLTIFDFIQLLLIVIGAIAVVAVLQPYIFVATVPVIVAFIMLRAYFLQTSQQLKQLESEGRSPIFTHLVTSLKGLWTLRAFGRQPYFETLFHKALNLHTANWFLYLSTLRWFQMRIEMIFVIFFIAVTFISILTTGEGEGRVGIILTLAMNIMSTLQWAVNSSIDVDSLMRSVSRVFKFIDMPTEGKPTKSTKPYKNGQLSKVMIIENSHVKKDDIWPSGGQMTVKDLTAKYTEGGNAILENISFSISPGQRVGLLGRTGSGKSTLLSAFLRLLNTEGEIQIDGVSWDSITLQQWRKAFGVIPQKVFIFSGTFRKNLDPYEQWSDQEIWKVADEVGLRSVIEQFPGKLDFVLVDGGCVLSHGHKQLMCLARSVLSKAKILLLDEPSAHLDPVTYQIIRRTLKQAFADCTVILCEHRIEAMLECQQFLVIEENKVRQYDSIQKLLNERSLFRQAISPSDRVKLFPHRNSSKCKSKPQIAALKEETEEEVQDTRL

`C[C@@H]1CN(c2nc(-n3ccc(OCCC4(C(F)(F)F)CC4)n3)ccc2C(=O)NS(=O)(=O)c2ccccc2)C(C)(C)C1` [Compound I, N-(benzenesulfonyl)-6-[3-[2-[1-(trifluoromethyl)cyclopropyl]ethoxy]pyrazol-1-yl]-2-[(4S)-2,2,4-trimethylpyrrolidin-1-yl]pyridine-3-carboxamide]: the pKa in the series “pKa determination” stood at 4.95 ± 0.06. The EC50 at F508del-CFTR [1] (CFTR Activity, Table 120, read-out: CFTRdF508 EC50) is < 0.1 µM. The EC50 on F508del-CFTR [1] (F508del NIH 3T3 cells, membrane potential HTS assay, read-out: EC50) was < 3 µM. Besides, the Emax on F508del-CFTR [1] (NIH3T3, F508del NIH 3T3 cells, relative to Compound II, read-out: % Efficacy relative to Compound II) is ≥ 100%. At F508del-CFTR [2] (F508del/F508del-HBE cells), the chloride transport result was “enhanced chloride transport” and the “effect on chloride transport together with Compound II” value is given as “additive to the effect of Compound II”. Besides, the “increase in steady-state levels, fold of untreated levels” value at F508del-CFTR [3] (F508del/F508del-HBE cells, 16 to 24 hours, 1 μM Compound I alone) is listed as 6.5 fold. Further, the “processing and trafficking of F508del-CFTR” value on F508del-CFTR [3] (in vitro) was “improved the processing and trafficking of F508del-CFTR; also recorded: facilitates the processing and trafficking of F508del-CFTR”.
Take `CC(C)(C)c1cc(C(C)(C)C)c(NC(=O)c2c[nH]c3ccccc3c2=O)cc1O` [Compound III, N-(5-hydroxy-2,4-di-tert-butyl-phenyl)-4-oxo-1H-quinoline-3-carboxamide, reference compound]: at F508del-CFTR [2] (HBE cells), the “potentiation of F508del-CFTR delivered to the cell surface by Compound I alone or in combination with Compound II” value is listed as “potentiated”.

For orientation: pKa means the negative logarithm of the acid dissociation constant. Read a high pKa as a group that holds its proton tightly. By EC50 is commonly meant the concentration that produces a half-maximal response.
